From US4939138A, “2- and 3-aminomethyl-6-arylcarbonyl-2,3-dihydropyrrolo(1,2,3-DE)-1,4-benzoxazin es” (Sterling Drug Inc., priority 1989, dated 1990)

Legend:
[1] = tested on: acetic acid-induced writhing; assay: inhibition of acetic acid-induced writhing in the rat (RW); format: in vivo, rat (male Sprague Dawley); conditions: oral; for ED50: Rattus norvegicus
Experimental: (§1) In order to further detail the analgesic profiles of the compounds of the invention, their activities in the inhibition of acetic acid-induced writhing assay in the rat, the inhibition of cyclooxygenase assay and a modification of the Randall-Selitto analgesic test were also determined The test procedure used to determine the inhibition of acetic acid-inducedwrithing in the rat is described as follows.
Male Sprague Dawley rats (Taconic Farms) weighing between 160 and 200g were treated in a random and blind fashion with 1% gum tragacanth vehicle or test agent suspended or dissolved in 1% gum tragacanth. Rats were individually housed in plastic cages (28×18×12 cm) throughout the experiment. Forty-five minutes after drug treatment, 0.5 ml of 9% (w/v) acetic acid was administered intraperitoneally, and animals were returned to their cages for 10 minutes. Writhing is not normally seen during this 10 minute period. Each animal was then observed for a writhing response during a subsequent 10 minute interval (55-65 minutes post-drug treatment). A writhing response was defined as arching of the back with extension of the hindlimbs and contraction of abdominal muscles. […] Data were expressed as percent inhibition of the mean number of writhes in the vehicle treated control group. Data were evaluated for statistical significance by Dunnett's test, and ED50 's for inhibition of acetic acid-induced writhing were determined by the graded dose-response analysis of Tallarida and Murray, Manual of Pharmacologic Calculations with Computer Programs, Springer Verlag, New York (1981).
(§2) In the acetylcholine-induced abdominal constriction test, the test compounds were administered either as suspensions in gum tragacanth (GT) or as aqueous solutions prepared by addition of just sufficient dilute aqueous methanesulfonic acid (MS) or dilute aqueous lactic acid (LA) to dissolve the compound The compounds are identified by the example number above where their preparations are described All data in the anti-bradykinin, rat writhing and Randall-Selitto tests were obtained on oral administration.

[2] = tested on: cyclooxygenase; assay: inhibition of cyclooxygenase assay (CO); format: biochemical, mice
Experimental: as §1
The test procedure used to determine cyclooxygenase inhibitory activity is described as follows.
Male mice were decapitated and stomach and brain (cerebral cortex, hypothalamus and medulla) were rapidly dissected over ice. The brains were homogenized in 3 volumes of ice cold 0.1 M potassium phosphate buffer, pH 7.4 containing 10 mM EDTA and 1% BSA (w/v). The homogenate was centrifuged at 10,000 xg for 15 minutes. The resulting supernatant was decanted and centrifuged at 100,000 xg for 60 minutes yielding a crude microsomal pellet. The pellet was washed superficially three times in 3 volumes of 0.1 M potassium phosphate buffer before final resuspension in 1.5 volumes of 0.1 M potassium phosphate buffer containing 1 mM norepinephrine and 1 mM reduced glutathione. The microsomes (50 μl) were preincubated with 50 μl of indomethacin (0.3 μM), test compound or norepinephrine/glutathione-containing buffer for 5 minutes at room temperature. The enzyme reaction was initiated by the addition of 50 μl of ^14 C arachidonic acid to yield a final concentration of 10 μM. After a further incubation of 15 minutes at 37° C., the reaction was stopped by the addition of 50 μl of 4M formic acid. Blank values were determined by using microsomes boiled for 5 minutes but otherwise were treated similarly. The ^14 C-labelled material was extracted 3 times with 0.5 ml of ethyl acetate with intermediate centrifugations at 500 xg for 5 minutes to clarify the aqueous and organic phases. This procedure extracted >95% of the ^14 C-labelled materials. The ethyl acetate washes were added to tubes containing 5 μg each of PGE2, PGF2, PGD2, and 10 μg PGI2 in 25 μl of ethanol. The mixture was evaporated to dryness under nitrogen and the residue dissolved in 150 μl of chloroform:methanol (2:1). This solution was spotted on 5×20 cm silica gel plates and chromatographed with an ethyl acetate, trimethylpentane, acetic acid and water mixture (110:50:20:100 by volume) prepared by shaking the solvents and separating and discarding the organic phase. The prostaglandins were visualized in iodine vapor, the various spots were scraped, and the ^14 C-labelled prostaglandins quantitated by liquid scintillation spectroscopy in 10 ml of BIOFLUOR® or FLUORODYNE®.
as §2

[3] = tested on: mouse vas deferens; assay: mouse vas deferens adrenergic transmission test (MVD); conditions: for IC50: concentration producing 50% of the maximum response; for MVD percent inhibition: 10 μM
Description: (§3) The test procedures used to determine the analgesic activities of the compounds have been described in detail in the prior art and are as follows: The acetylcholine-induced abdominal constriction test, which is a primary analgesic screening test designed to measure the ability of a test agent to suppress acetylcholine-induced abdominal constriction in mice, described by Collier et al., Brit. J. Pharmacol. Chemotherap. 32, 295 (1968); a modification of the anti-bradykinin test, which is also a primary analgesic screening procedure, described by Berkowitz et al., J. Pharmacol. Exptl Therap. 177, 500-508 (1971), Blane et al., J. Pharm. Pharmacol 19, 367-373 (1967), Botha et al., Eur. J. Pharmacol. 6, 312-321 (1969) and Deffenu et al., J. Pharm. Pharmacol. 18, 135 (1966); the rat paw flexion test, described by Kuzuna et al., Chem. Pharm. Bull., 23, 1184-1191 (1975), Winter et al., J. Pharm. Exptl. Therap., 211, 678-685 (1979) and Capetola et al., J. Pharm. Exptl. Therap. 214, 16-23 (1980); and the mouse vas deferens adrenergic transmission test, described by Henderson et al., Brit. J. Pharmacol., 46, 764-766 (1972).
As before, the compounds are identified by the example number above where their preparations are described.

[4] = tested on: acetylcholine-induced abdominal constriction; assay: acetylcholine-induced abdominal constriction test (ACH); format: in vivo, mice; conditions: for ED50: Mus musculus
Description: as §3, §2

[5] = tested on: bradykinin; assay: anti-bradykinin test (BDK/BRKD); format: in vivo; conditions: oral, dose level 300
Description: as §3, with “(1972). […]” for “(1972).”

[6] = p.o., dose level 100, aqueous methanesulfonic acid (MS)
[7] = 30 μM, negative values = increases over controls, not demonstrated to differ significantly
[8] = p.o., dose level 100, suspension in gum tragacanth (GT)

Cc1c(C(=O)c2cccc3ccccc23)c2cccc3c2n1C(CN1CCOCC1)CO3 (single isomer, unassigned; (+)) [2B(d), (+)-3-(4-morpholinylmethyl)-5-methyl-6-(1-naphthylcarbonyl)-2,3-dihydropyrrolo1,2,3-de]-1,4-benzoxazine methanesulfonate]
ED50 [1]: 7.5 mg/kg
CO percent inhibition (% I) ([2]; 100 μM): 9%
IC50 [3]: 0.43 ± 0.1 nM
ED50 ([4]; iv): 0.027 mg/kg
ED50 ([4]; po, aqueous methanesulfonic acid (MS)): 33 mg/kg

COc1ccc(C(=O)c2c(C)n3c4c(cccc24)OCC3CN2CCOCC2)cc1 (single isomer, unassigned; (+)) [2H(d)]
IC50 [3]: 44 ± 13 nM

Cc1c(C(=O)c2cccc3c(Br)cc(Br)cc23)c2cccc3c2n1C(CN1CCOCC1)CO3 (single isomer, unassigned; (+)) [Example 2G, (+)-3-(4-morpholinylmethyl)-5-methyl-6-(5,7-dibromo-1-naphthylcarbonyl)-2,3-dihydropyrrolo[1,2,3-de]-1,4-benzoxazine]
IC50 [3]: 40 ± 5.4 nM

CS(=O)(=O)O.Cc1c(C(=O)c2cccc3ccccc23)c2cccc3c2n1C(CN1CCOCC1)CO3 (single isomer, unassigned; (-)) [2B(1), (-)-3-(4-morpholinylmethyl)-5-methyl-6-(1-naphthylcarbonyl)-2,3-dihydropyrrolo[1,2,3-de]-1,4-benzoxazine methanesulfonate]
RW percent inhibition ([1]; dose level 100): 12%
CO percent inhibition (% I) ([2]; 100 μM): 10.4%
MVD percent inhibition [3]: 37%
IC50 ([3]; methanesulfonate): > 10000 nM
ACH percent inhibition ([4]; i.v., dose level 0.3): 20%
ACH percent inhibition ([4]; i.v., dose level 1): 40%
ACH percent inhibition ([4]; i.v., dose level 3): 10%
ACH percent inhibition ([4]; i.v., dose level 5.5): 30%
ACH percent inhibition ([4]; p.o., dose level 10, aqueous methanesulfonic acid (MS)): 10%
ACH percent inhibition ([4]; p.o., dose level 30, aqueous methanesulfonic acid (MS)): 10%
ACH percent inhibition [4, 6]: 10%
ACH percent inhibition ([4]; p.o., dose level 173, aqueous methanesulfonic acid (MS)): 30%

COc1ccc(C(=O)c2c(C)n3c4c(cccc24)OCC3CN2CCOCC2)cc1 (single isomer, unassigned; (-)) [2H(1), (-)-3-(4-morpholinylmethyl)-5-methyl-6-(4-methoxybenzoyl) -2,3-dihydropyrrolo[1,2,3-de]-1,4-benzoxazine]
MVD percent inhibition [3]: 44%
IC50 [3]: > 10000 nM

Cc1c(C(=O)c2cccc3ccccc23)c2cccc3c2n1C(CN1CCOCC1)CO3 (stereo not drawn) [1B (CH3 SO3 H), 3-(4-morpholinylmethyl)-5-methyl-6-(1-naphthylcarbonyl)-2,3-dihydropyrrolo1,2,3-de]-1,4-benzoxazine methanesulfonate]
IC50 [3]: 6 ± 0.6 nM

Cc1c(C(=O)c2cccc3ccccc23)c2cccc3c2n1C(CN1CCOCC1)CO3 (stereo not drawn) [1B (base)]
IC50 [3]: 4 ± 2 nM

COc1ccc(C(=O)c2c(C)n3c4c(cccc24)OCC3CN2CCOCC2)cc1 (stereo not drawn) [Example 1A, 3-(4-morpholinylmethyl)-5-methyl-6-(4-methoxybenzoyl)-2,3-dihydropyrrolo[1,2,3-de]-1,4-benzoxazine]
RW percent inhibition ([1]; dose level 100): 50.6%
RW percent inhibition ([1]; dose level 300): 23%
CO percent inhibition (% I) [2, 7]: 19%
IC50 [3]: 123 ± 13 nM
BRKD percent inhibition [5]: 0%
ED50 ([4]; iv): 3.4 mg/kg
ACH percent inhibition [4, 6]: 30%
ACH percent inhibition [4, 8]: 20%

Cc1c(C(=O)c2ccc3ncccc3c2)c2cccc3c2n1C(CN1CCOCC1)CO3 (stereo not drawn) [Example 1C]
ED50 [1]: 3.5 mg/kg
CO percent inhibition (% I) [2, 7]: -26.2%
IC50 [3]: 21 ± 0.65 nM
ED50 ([4]; iv): 1.8 mg/kg
ED50 ([4]; po, vehicle not given): 27 mg/kg
ACH percent inhibition ([4]; s.c., dose level 100, suspension in gum tragacanth (GT)): 0%

CCc1c(C(=O)c2ccc(OC)cc2)c2cccc3c2n1C(CN1CCOCC1)CO3 (stereo not drawn) [Example 2A, 3-(4-morpholinylmethyl)-5-ethyl-6-(4-methoxybenzoyl)-2,3-dihydropyrrolo[1,2,3-de]-1,4-benzoxazine]
MVD percent inhibition [3]: 27%
IC50 [3]: > 10000 nM
ACH percent inhibition [4, 8]: 20%

COc1ccc(C(=O)c2cn3c4c(cccc24)OCC3CN2CCOCC2)cc1 (stereo not drawn) [Example 2C, 3-(4-morpholinylmethyl)-6-(4-methoxybenzoyl)-2,3-dihydropyrrolo[1,2,3-de]-1,4-benzoxazine]
CO percent inhibition (% I) [2, 7]: -8.9%
IC50 [3]: 44 ± 9.8 nM
ED50 ([4]; iv): 3.9 mg/kg
ACH percent inhibition [4, 8]: 30%

CS(=O)(=O)O.Cc1c(C(=O)c2ccccc2F)c2cccc3c2n1C(CN1CCOCC1)CO3 (stereo not drawn) [Example 2D, 3-(4-morpholinylmethyl)-5-methyl-6-(2-fluorobenzoyl)-2,3-dihydropyrrolo[1,2,3-de]-1,4-benzoxazine methanesulfonate]
IC50 [3]: 76 ± 4 nM
ED50 ([4]; iv): 2 mg/kg
ACH percent inhibition [4, 6]: 30%

CS(=O)(=O)O.Cc1c(C(=O)c2ccc(Br)c3ccccc23)c2cccc3c2n1C(CN1CCOCC1)CO3 (stereo not drawn) [Example 2E, 3-(4-morpholinylmethyl)-5-methyl-6-(4-bromo-1-naphthylcarbonyl)-2,3-dihydropyrrolo[1,2,3-de]-1,4-benzoxazine methanesulfonate]
IC50 [3]: 2.2 ± 0.2 nM
ACH percent inhibition ([4]; p.o., dose level 100, aqueous lactic acid (LA)): 0%
ACH percent inhibition [4, 8]: 35%

O=C(c1cccc2ccccc12)c1cn2c3c(cccc13)OCC2CN1CCOCC1 (stereo not drawn) [Example 2F]
IC50 [3]: 2 ± 0.03 nM
ACH percent inhibition [4, 8]: 10%

Cc1c(C(=O)c2cccc3ccccc23)c2cccc3c2n1CC(CN1CCOCC1)O3 (stereo not drawn) [Example 2I, 2-(4-morpholinylmethyl)-5-methyl-6-(1-naphthylcarbonyl-2,3-dihydropyrrolo1,2,3-de]-1,4-benzoxazine]
IC50 [3]: 4 ± 2 nM

(-)-3-(4-morpholinylmethyl)-5-methyl-6-(5,7-dibromonaphthylcarbonyl)-2,3-dihydropyrrolo[1,2,3-de]-1,4-benzoxazine methanesulfonate [Example 1E]
IC50 [3]: 2620 ± 1700 nM
